# Columns and labels:
# Experiment in all cases: relative viability (nuclei count vs DMSO), 5 days (fraction); higher = more cells survive
# [1] = compound: Cn1cnc2c(F)c(Nc3ccc(Br)cc3Cl)c(C(=O)NOCCO)cc21 [Selumetinib] + CS(=O)(=O)CCNCc1ccc(-c2ccc3ncnc(Nc4ccc(OCc5cccc(F)c5)c(Cl)c4)c3c2)o1 [Lapatinib] (partner 2 µM)
# Procedure, shortened: (§1)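 Relative viability divides the nuclei count in treated wells by that in vehicle wells. Lung cancer cell lines were seeded in 1536-well plates, dosed by pin tool the next day, and fixed and stained after 5 days in one step with final 0.05% Triton X-100, 1% formaldehyde and 1 ug/ml Hoechst. Dosing was a single drug or a fixed anchor-drug dose plus five library-drug doses (not always all listed) in √10 steps, and values are medians of duplicate plates imaged at 4×.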
# [2] = compound: CC1(C)CCC(CN2CCN(c3ccc(C(=O)NS(=O)(=O)c4ccc(NCC5CCOCC5)c([N+](=O)[O-])c4)c(Oc4cnc5[nH]ccc5c4)c3)CC2)=C(c2ccc(Cl)cc2)C1 [Venetoclax] + N=C(N)NC(=N)NCCc1ccccc1 [Phenformin] (partner 250 µM)
# Procedure, shortened: as §1
# [3] = compound: CC1(C)CCC(CN2CCN(c3ccc(C(=O)NS(=O)(=O)c4ccc(NCC5CCOCC5)c([N+](=O)[O-])c4)c(Oc4cnc5[nH]ccc5c4)c3)CC2)=C(c2ccc(Cl)cc2)C1 [Venetoclax] + Cc1cc(Nc2cc(N3CCN(C)CC3)nc(Sc3ccc(NC(=O)C4CC4)cc3)n2)n[nH]1 [Tozasertib] (partner 0.1 µM)
# Procedure, shortened: as §1
# [4] = compound: Cn1cnc2c(F)c(Nc3ccc(Br)cc3Cl)c(C(=O)NOCCO)cc21 [Selumetinib] + CC(C)C[C@H](NC(=O)[C@H](Cc1ccccc1)NC(=O)c1cnccn1)B(O)O [Bortezomib] (partner 0.002 µM)
# Procedure, shortened: as §1
Cell Line,relative viability ([1]; first compound 0.02 µM),relative viability ([1]; first compound 0.06325 µM),relative viability ([1]; first compound 0.2 µM),relative viability ([1]; first compound 0.6325 µM),relative viability ([2]; first compound 0.01 µM),relative viability ([2]; first compound 0.03162 µM),relative viability ([2]; first compound 0.1 µM),relative viability ([2]; first compound 0.3162 µM),relative viability ([2]; first compound 1 µM),relative viability ([3]; first compound 0.01 µM),relative viability ([3]; first compound 0.03162 µM),relative viability ([3]; first compound 0.1 µM),relative viability ([3]; first compound 0.3162 µM),relative viability ([3]; first compound 1 µM),relative viability ([4]; first compound 0.02 µM),relative viability ([4]; first compound 0.06325 µM),relative viability ([4]; first compound 0.2 µM),relative viability ([4]; first compound 0.6325 µM)
201T,1.01,0.963,0.958,0.949,0.451,0.433,0.456,0.466,0.411,0.826,0.957,0.945,0.91,0.941,1.11,1,1.01,0.994
A549,0.84,0.731,0.749,0.5,0.141,0.147,0.129,0.164,0.129,,,,,,,,,
A-427,0.98,0.914,1.09,1.1,0.292,0.322,0.31,0.348,0.259,0.203,0.24,0.212,0.201,0.186,1.06,0.978,1.05,0.959
ABC-1,1.22,1.27,0.967,1.03,0.234,0.269,0.236,0.241,0.228,0.16,0.17,0.178,0.156,0.219,0.279,0.258,0.275,0.291
BEN,0.69,0.829,0.637,0.648,0.26,0.306,0.302,0.273,0.264,0.426,0.476,0.373,0.476,0.38,0.779,0.854,0.686,0.834
CAL-12T,0.542,0.425,0.523,0.521,0.543,0.575,0.567,0.555,0.539,0.302,0.346,0.28,0.222,0.19,0.768,0.935,0.849,0.772
COR-L23,1.18,1.1,0.98,1,0.42,0.442,0.413,0.43,0.423,0.206,0.217,0.231,0.16,0.182,1.27,0.939,1.06,0.968
COR-L 105,0.309,0.3,0.337,0.366,0.583,0.462,0.462,0.493,0.458,0.274,0.397,0.321,0.32,0.335,0.813,0.477,0.609,0.567
Calu-6,1.05,0.853,0.693,0.439,,,,,,,,,,,1.07,0.792,0.648,0.558
ChaGo-K-1,,,,,0.539,0.489,0.429,0.49,0.453,0.236,0.218,0.224,0.208,0.227,0.959,0.993,0.942,1.05
EBC-1,0.203,0.201,0.239,0.199,,,,,,,,,,,0.759,0.625,0.578,0.304
EKVX,0.171,0.263,0.241,0.168,0.229,0.236,0.223,0.239,0.233,0.403,0.392,0.435,0.324,0.309,0.858,0.795,0.543,0.748
EMC-BAC-2,0.955,0.898,0.905,0.862,0.483,0.524,0.519,0.512,0.475,0.3,0.285,0.28,0.273,0.259,1.06,1.07,1.01,0.999
EPLC-272H,0.801,0.722,0.558,0.643,0.353,0.312,0.286,0.321,0.295,0.339,0.391,0.311,0.452,0.336,0.966,0.864,0.779,0.567
H3255,0.238,0.267,0.218,0.243,0.407,0.43,0.348,0.345,0.414,0.564,0.525,0.615,0.591,0.745,0.82,0.801,0.761,0.962
HARA,0.657,0.506,0.606,0.486,0.415,0.406,0.464,0.467,0.447,0.0626,0.109,0.0841,0.116,0.106,1.03,1.07,1.01,0.861
HCC-15,0.786,0.575,0.463,0.398,0.451,0.48,0.455,0.448,0.406,0.45,0.47,0.371,0.324,0.273,0.842,0.677,0.559,0.424
HCC-44,0.977,1,0.891,0.966,0.362,0.153,0.165,0.161,0.182,0.747,0.978,0.894,0.791,0.715,0.993,0.882,0.945,0.971
HCC-78,0.695,0.64,0.657,0.675,0.782,0.776,0.699,0.671,0.606,0.349,0.454,1.29,0.404,0.497,0.468,0.359,0.392,0.425

Cell Line,relative viability ([1]; first compound 0.02 µM),relative viability ([1]; first compound 0.06325 µM),relative viability ([1]; first compound 0.2 µM),relative viability ([1]; first compound 0.6325 µM),relative viability ([2]; first compound 0.01 µM),relative viability ([2]; first compound 0.03162 µM),relative viability ([2]; first compound 0.1 µM),relative viability ([2]; first compound 0.3162 µM),relative viability ([2]; first compound 1 µM),relative viability ([3]; first compound 0.01 µM),relative viability ([3]; first compound 0.03162 µM),relative viability ([3]; first compound 0.1 µM),relative viability ([3]; first compound 0.3162 µM),relative viability ([3]; first compound 1 µM),relative viability ([4]; first compound 0.02 µM),relative viability ([4]; first compound 0.06325 µM),relative viability ([4]; first compound 0.2 µM),relative viability ([4]; first compound 0.6325 µM)
IA-LM,0.395,0.182,0.111,0.108,,,,,,,,,,,0.742,0.497,0.304,0.257
LCLC-103H,,,,,0.335,0.298,0.352,0.313,0.333,0.575,0.396,0.36,0.51,0.454,1.01,1.06,0.993,0.978
LK-2,1.16,0.852,0.848,0.924,0.479,0.605,0.491,0.617,0.357,0.154,0.18,0.19,0.18,0.192,,,,
NCI-H358,0.38,0.334,0.391,0.314,0.369,0.291,0.282,0.406,0.325,0.117,0.0943,0.115,0.0994,0.102,,,,
NCI-H441,,,,,0.83,0.706,0.787,0.805,0.868,0.587,0.603,0.86,0.676,0.507,0.658,0.345,0.544,0.506
NCI-H522,,,,,0.647,0.735,0.561,0.613,0.637,0.605,0.481,0.599,0.555,0.437,,,,
NCI-H1299,1.06,0.959,1.02,0.812,,,,,,,,,,,1.08,1.09,1.07,0.977
NCI-H1395,0.982,0.997,0.93,1.05,0.45,0.444,0.405,0.473,0.428,0.851,0.85,0.705,0.782,0.762,,,,
NCI-H1563,0.891,0.851,0.944,0.911,0.728,0.649,0.662,0.701,0.659,,,,,,0.804,0.68,0.726,0.786
NCI-H1623,,,,,0.556,0.607,0.597,0.64,0.63,0.444,0.506,0.411,0.411,0.403,,,,
NCI-H1648,,,,,,,,,,0.235,0.574,0.54,0.471,0.415,,,,
NCI-H1703,1.19,1.17,1.17,0.994,,,,,,,,,,,0.309,0.255,0.403,0.434
NCI-H1792,0.881,0.79,0.683,0.629,0.263,0.258,,0.254,0.246,,,,,,0.852,0.789,0.706,0.677
NCI-H1793,0.827,0.581,0.503,0.504,0.457,0.354,0.271,0.36,0.303,0.227,0.347,0.321,0.297,0.237,,,,
NCI-H1944,0.812,0.666,0.63,0.634,0.216,0.197,0.183,0.212,0.205,0.267,0.246,0.238,0.273,0.228,,,,
NCI-H2170,0.265,0.267,0.274,0.247,0.319,0.415,0.399,0.368,0.34,0.723,0.68,0.592,0.646,0.632,,,,
NCI-H2342,,,,,0.763,0.531,0.601,0.568,0.563,0.59,0.617,0.375,0.568,0.656,,,,
SK-MES-1,0.432,0.401,0.361,0.371,0.616,0.685,0.69,0.601,0.511,0.824,0.968,0.958,0.852,0.708,,,,
SW 900,,,,,0.385,0.702,0.528,0.706,0.623,0.401,0.55,0.476,0.65,0.386,,,,

# From the supplement of paper PMC10307832
